These results are taken from patent US10851073B2, “Protein tyrosine phosphatase inhibitors and methods of use thereof” (Calico Life Sciences LLC, priority 2019, dated 2020).

Experiment [1] has as its target T1, His tagged PTPN2 (TC45) protein (Homo sapiens, UniProt P17706).
T1 construct: made in house
T1 sequence (P17706 with tags, fused parts or gaps isoform P17706-2): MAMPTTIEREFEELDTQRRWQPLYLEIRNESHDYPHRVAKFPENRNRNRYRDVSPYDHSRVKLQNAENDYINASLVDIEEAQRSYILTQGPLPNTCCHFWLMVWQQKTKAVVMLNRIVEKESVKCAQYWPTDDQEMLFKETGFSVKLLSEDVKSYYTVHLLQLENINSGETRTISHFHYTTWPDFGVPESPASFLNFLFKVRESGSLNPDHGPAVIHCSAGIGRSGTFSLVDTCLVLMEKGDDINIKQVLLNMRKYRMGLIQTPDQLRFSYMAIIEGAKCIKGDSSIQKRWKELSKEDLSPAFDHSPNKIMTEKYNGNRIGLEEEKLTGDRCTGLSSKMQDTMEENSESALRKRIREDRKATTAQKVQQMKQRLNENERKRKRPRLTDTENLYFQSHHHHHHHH
Briefly: Mobility shift assay used to determine potency of PTPN2 inhibitors. Format: biochemical. The following applies: enzyme 0.5 nM, substrate 2 μM; read-out: PTPN2 MSA IC50. In short, it runs like this: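 Microfluidic mobility-shift read-out (488/530 nm) of dephosphorylation of an OG488-tagged phosphotyrosine insulin receptor peptide, 2 μM, over 10 min at room temperature, after 10 min compound preincubation with 0.5 nM enzyme. Buffer: 50 mM HEPES pH 7.5, EGTA, EDTA, Tween 20, DTT. IC50 derived from % inhibition over 12-point 1:3 series.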

Experiment [2] relates to IFNγ-induced STAT1 phosphorylation in CD14+ monocytes. Description: Human whole blood pSTAT1 proximal pharmacodynamic (PD) assay. In kind it is cell-based. Particulars: Monocyte, 3 hours compound, IFNγ 20 minutes. The method, then: Example 230: Human Whole Blood pSTAT1 Proximal Pharmacodynamic (PD) Assay Human blood samples were acquired through internal AbbVie Inc's blood donation program in accordance with AbbVie's Occupational Safety and Health Administration protocols. Blood was collected by venipuncture into sodium heparin coated vacutainer tubes and kept at room temperature for no longer than 1 hour prior to the experiment initiation. Human blood samples (90 μL) were added to the individual wells of 96-well plates containing 10 μL of 10× working stock solutions of increasing concentrations of compounds to achieve final concentrations ranging from 0.025 μM to 500 μM and incubated for 3 hours at 37° C. To induce STAT1 phosphorylation the samples were then treated with recombinant human IFNγ (R&D Systems, Catalog^#285-IF, Minneapolis, Minn.; 100 nM final concentration) for 20 minutes, and 3 μL/well BV421 labeled anti-CD14 surface antibody (Biolegend, San Diego, Calif., Catalog^#301830) was added for 45 minutes before fixation and red blood cell lysis was performed with BD Phosflow Lyse/Fix buffer (BD Biosciences, San Jose, Calif., Catalog^#558049). Cells were subsequently permeabilized on ice by the addition of BD Perm III buffer (BD Biosciences, San Jose, Calif., Catalog^#558050) and stored at -80° C. until use. Before staining, the cells were washed with PBS containing 0.1% BSA. Optim/zed concentrations of BUV395 labeled anti-CD45 (BD Biosciences, San Jose, Calif., Catalog^#563792) and PE labeled anti-phospho-STAT1 ([…]; Invitrogen, Carlsbad, Calif., Catalog^#12-9008-42) antibodies were added to the cell suspensions and incubated for 2 hours. The cells were washed with PBS containing 0.1% BSA and analyzed on a BD LSRFortessaTM X20 flow cytometer (BD Biosciences, San Jose, Calif.) using BD FACSDivaTM software. The data was analyzed using FlowJo V10 analysis software (Flow Jo LLC, Ashland, Oreg.). The amount of STAT phosphorylation was measured by the mean fluorescence intensity (MFI) of pSTAT1 in CD14+monocytes. Compound dose-response curves were determined using a four-parameter logistic-nonlinear regression model from which half maximal effective concentrations (EC50) were calculated. All statistical analyses utilized GraphPad software (San Diego, Calif.).

Molecules are shown by their SMILES.

What is called IC50 is the concentration that gives 50% inhibition. Usually EC50 stands for the concentration that produces a half-maximal response. Read a high EC50 as lower potency in that assay. Take `CC(C)CCN[C@@H]1CCc2cc(O)c(N3CC(=O)NS3(=O)=O)c(F)c2C1` (single isomer, unassigned) [Compound 118]: the IC50 in experiment [1] is 1 to 10 nM. The molecule also gave an EC50 in experiment [2] of 580 nM.

Regarding `O=C1CN(c2c(O)cc3c(c2F)C[C@H](NCCC2CC2)CC3)S(=O)(=O)N1` (single isomer, unassigned) [Compound 133], the IC50 in experiment [1] fell in the range of 1 to 10 nM. The same molecule gave an EC50 in experiment [2] of 1600 nM.

In the case of `CC(C)(CCN[C@@H]1CCc2cc(O)c(N3CC(=O)NS3(=O)=O)c(F)c2C1)C(F)(F)F` (single isomer, unassigned) [Compound 177], in experiment [1], the IC50 was under 1 nM. Further, the EC50 in experiment [2] turned out to be 2000 nM.

As to `O=C1CN(c2c(O)cc3c(c2F)C[C@H](NCCCC(F)F)CC3)S(=O)(=O)N1` (single isomer, unassigned) [Compound 199], the IC50 in experiment [1] was under 1 nM. The molecule also returned an EC50 in experiment [2] of 830 nM.

`O=C1CN(c2c(O)cc3c(c2F)C[C@@H](NCCC(F)F)CC3)S(=O)(=O)N1` (single isomer, unassigned) [Compound 259]: the IC50 in experiment [1] fell in the range of 10 to 100 nM. The molecule also yielded an EC50 in experiment [2] of 14200 nM.

Turning to `O=C1CN(c2c(O)cc3c(c2F)C[C@H](NCCC(F)F)CC3)S(=O)(=O)N1` (single isomer, unassigned) [Compound 260], the IC50 in experiment [1] was 1 to 10 nM. In experiment [2], this molecule displayed an EC50 of 4400 nM.
